Experimental data from publication PMC7450057, “Enhancing intracellular accumulation and target engagement of PROTACs with reversible covalent chemistry” (Nature Communications, 2020).
Values joined by “and” are separate entries in the source; they are usually repeats but may differ in a detail not shown here. Equal values may be shown once. “Also recorded” adds a separate entry of the source.

Legend:
BTK-NanoLuc fusion = target: T1, BTK-NanoLuc fusion (Homo sapiens, UniProt Q06187); test: NanoBRET BTK in-cell target engagement assay; assay type: cell-based; details: for NanoBRET(%): Figure 3c; for NanoBRET(%) / IC50: triplicates; for IC50: HEK-293 cells, BTK tracer 1.0 µM, Table 1 / Fig. 3c, read-out: BTK TE IC50,TE; for K′P,D (relative intracellular accumulation coefficient): Kd (BTK)/IC50,TE (BTK); for intracellular accumulation of RC-1 relative to the compound: from K′P,D values, BTK (Table 1)
T1 construct: host or cells: HEK 293T/17
Outline: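 Tracer-displacement IC50 derived from background-corrected BRET ratio (450 nm donor, 610 nm acceptor) in live HEK293/T17 cells transfected with BTK-NanoLuc. Cells were exposed for 2 h at 37 °C to 1.0 µM tracer plus 5-fold serial dilutions of compound from 10 µM.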

[1] = target: truncated Cereblon protein (Homo sapiens, UniProt Q96SW2); test: CRBN binding assay (fluorescence quenching); details: for Fluorescence Intensity: Supplementary Figure 11, replicates; for Kd: truncated Cereblon protein, fluorescence quenching, triplicates, read-out: Kd
Description: The Kd values of compounds to CRBN were measured based on fluorescence quenching after compounds binding to CRBN. […] All the compounds were dissolved in DMSO (10 mM) as stock solutions. The final drug concentration is 100 nM. […] Fluorescence intensity values for control wells (assay buffer only) were subtracted from each data point prior to analysis. The Kd was calculated using GraphPad Prism with the following equation curve fit. I=I0−If×Kd/P0+Kd+If

MOLM-14 cells = test: AlamarBlue cell viability assay, MOLM-14; details: for IC50: Homo sapiens, MOLM-14, 72 h, read-out: Cell viability IC50, MOLM-14 cells, 72 h, Alamar Blue; for Cell viability, MOML-14: Supplementary Figure 7, replicates; for MOLM-14 Cell Viability%: Figure 2f, 5 replicates
Description: The IC50 was calculated using GraphPad Prism software with a four-parameter dose-response curve fit.

BTK [2] = target: BTK (Homo sapiens, UniProt Q06187); test: BTK degradation in MOLM-14 cells (western blot); assay type: cell-based; parameters: endogenous in cells; host or cells: MOLM-14; details: for Quantification anti-BTK / anti-β-actin (BTK level vs DMSO): Figure 2b, duplicates
BTK [3] = target: BTK (Mus musculus, UniProt P35991); test: BTK degradation in mouse B-cell lymphoma cell line derived from Eu-Myc mice; assay type: cell-based; parameters: endogenous in cells; host or cells: B cell lymphoma cell line derived from Eu-Myc mice; details: Supplementary Figure 10, replicates, DMSO about 100
Description: MOLM-14 cell line was obtained from Dr. Conneely at Baylor College of Medicine, and the Mino cells were purchased from the American Type Culture Collection (ATCC, Cat. No. CRL-3000). Both cell lines were cultured in RPMI 1640 medium (Thermo Fisher Scientific, Cat. No. MT10040CV) supplemented with 10% fetal bovine serum (GE Healthcare, Cat. No. SH30071.03) and 1% Pen/Strep (Thermo Fisher Scientific, Cat. No. 15140163). The wild-type and C481S BTK XLA cell lines were gifts from Dr. Woyach at The Ohio State University and were cultured in RPMI 1640 medium with 15% fetal bovine serum, 1% Pen/Strep, and 1.0 µg/ml puromycin (Thermo Fisher Scientific, Cat. No. A1113803). HEK 293T/17 cells were purchased from ATCC (Cat. No. CRL-11268) were maintained in DMEM (Thermo Fisher Scientific, Cat. No. MT10013CV) with 10% fetal bovine serum and 1% Pen-Strep. The B cell lymphoma cell line derived from Eu-Myc mice was a gift from Dr. Yulin Li at Houston Methodist Research Institute and cultured in RPMI 1640 medium supplemented with 15% (v/v) fetal bovine serum (FBS), 100 U/mL penicillin, 100 μg/mL streptomycin, and 0.05 mM beta-mercaptoethanol and puromycin (1 μg/mL). Cells were grown at 37 °C with 5% CO2.
The collected cells and spleen tissues were lysed in RIPA lysis buffer (50 mM Tris-HCl, pH 7.4, 150 mM NaCl, 1% NP-40, 0.5% sodium deoxycholate, 0.1% SDS) supplemented with Halt™ Protease and Phosphatase Inhibitor Cocktail (Thermo Fisher Scientific, Cat. No. PI78440) immediately before use. Lysates were centrifuged at 15,000 × g for 10 min at 4 °C and the supernatant was quantified for total protein concentration using the Pierce BCA Protein Assay (Thermo Fisher Scientific, Cat. No. 23225). Thirty micrograms of protein were loaded onto sodium dodecyl sulfate−polyacrylamide gel for electrophoresis (Bio-Rad) and transferred onto PVDF membranes (Millipore, Cat. No. IPVH00010). […] Imaging was performed using the ECL Prime chemiluminescent western blot detection reagents (GE Healthcare, Cat. No. RPN2232) by visualization of the blots to X-Ray film or with an Imager (Kindle Biosciences, Cat. No. D1001). All western blots were subsequently processed and quantified with Imager software. Protein level was normalized to β-actin or GAPDH loading controls.

BTK (Homo sapiens, UniProt Q06187), sequence (Q06187 whole entry): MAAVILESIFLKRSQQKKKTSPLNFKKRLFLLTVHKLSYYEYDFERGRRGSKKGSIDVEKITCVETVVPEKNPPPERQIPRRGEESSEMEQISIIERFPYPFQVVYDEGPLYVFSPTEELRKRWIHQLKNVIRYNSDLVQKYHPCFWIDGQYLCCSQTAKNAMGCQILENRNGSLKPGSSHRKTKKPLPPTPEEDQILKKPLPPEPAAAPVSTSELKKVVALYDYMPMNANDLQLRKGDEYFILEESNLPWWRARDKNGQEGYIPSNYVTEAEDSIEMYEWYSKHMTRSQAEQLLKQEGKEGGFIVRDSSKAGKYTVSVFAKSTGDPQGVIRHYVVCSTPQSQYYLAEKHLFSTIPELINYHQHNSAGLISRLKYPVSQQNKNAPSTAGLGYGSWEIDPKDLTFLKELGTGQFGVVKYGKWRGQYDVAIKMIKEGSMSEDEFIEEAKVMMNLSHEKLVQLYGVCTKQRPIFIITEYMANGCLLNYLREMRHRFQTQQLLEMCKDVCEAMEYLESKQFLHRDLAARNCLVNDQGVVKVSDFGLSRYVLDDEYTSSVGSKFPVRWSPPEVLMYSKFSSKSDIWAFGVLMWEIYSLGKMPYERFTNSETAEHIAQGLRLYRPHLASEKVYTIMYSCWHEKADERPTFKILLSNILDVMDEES
T1 sequence (Q06187 whole entry, the tested form may be a part): as the sequence (Q06187 whole entry) above
BTK (Mus musculus, UniProt P35991), sequence (P35991 whole entry): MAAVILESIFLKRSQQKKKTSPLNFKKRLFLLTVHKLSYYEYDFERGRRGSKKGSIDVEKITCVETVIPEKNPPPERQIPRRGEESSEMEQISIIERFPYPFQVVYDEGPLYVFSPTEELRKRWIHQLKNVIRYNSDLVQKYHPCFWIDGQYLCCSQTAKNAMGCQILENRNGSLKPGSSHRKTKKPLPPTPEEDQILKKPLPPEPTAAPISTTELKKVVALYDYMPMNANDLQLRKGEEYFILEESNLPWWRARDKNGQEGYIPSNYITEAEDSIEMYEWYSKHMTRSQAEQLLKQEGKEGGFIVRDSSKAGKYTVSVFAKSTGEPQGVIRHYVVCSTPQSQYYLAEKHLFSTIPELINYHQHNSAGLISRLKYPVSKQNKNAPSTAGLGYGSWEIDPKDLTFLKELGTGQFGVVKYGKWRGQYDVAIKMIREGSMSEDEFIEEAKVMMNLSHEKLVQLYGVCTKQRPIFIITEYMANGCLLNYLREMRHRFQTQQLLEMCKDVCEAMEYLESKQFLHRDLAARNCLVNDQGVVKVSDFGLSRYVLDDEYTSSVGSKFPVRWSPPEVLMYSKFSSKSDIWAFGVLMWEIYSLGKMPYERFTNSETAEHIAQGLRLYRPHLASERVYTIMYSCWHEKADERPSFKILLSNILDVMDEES
truncated Cereblon protein, sequence (Q96SW2 318-426): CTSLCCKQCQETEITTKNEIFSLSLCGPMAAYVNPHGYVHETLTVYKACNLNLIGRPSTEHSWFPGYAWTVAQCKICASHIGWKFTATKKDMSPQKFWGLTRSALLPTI

NanoBRET(%) (BTK-NanoLuc fusion; 1.00E-05 M)	NanoBRET(%) (BTK-NanoLuc fusion; 1.60E-08 M)	NanoBRET(%) (BTK-NanoLuc fusion; 2.00E-06 M)	NanoBRET(%) (BTK-NanoLuc fusion; 3.20E-09 M)	NanoBRET(%) (BTK-NanoLuc fusion; 4.00E-07 M)	NanoBRET(%) (BTK-NanoLuc fusion; 8.00E-08 M)	IC50 (BTK-NanoLuc fusion) [µM]	K′P,D (relative intracellular accumulation coefficient) (BTK-NanoLuc fusion)	intracellular accumulation of RC-1 relative to the compound (BTK-NanoLuc fusion) [folds]	Fluorescence Intensity ([1]; CRBN 0 μM)	Fluorescence Intensity ([1]; CRBN 0.734375 μM)	Fluorescence Intensity ([1]; CRBN 1.46875 μM)	Fluorescence Intensity ([1]; CRBN 2.9375 μM)	Fluorescence Intensity ([1]; CRBN 5.875 μM)	Fluorescence Intensity ([1]; CRBN 11.75 μM)	Fluorescence Intensity ([1]; CRBN 23.5 μM)	Kd [1] [µM]	IC50 (MOLM-14 cells) [µM]	Quantification anti-BTK / anti-β-actin (BTK level vs DMSO) (BTK [2]; 8 nM)	Quantification anti-BTK / anti-β-actin (BTK level vs DMSO) (BTK [2]; 40 nM)	SMILES	further results
10.4557% and 9.057% and 9.053%	96.913% and 93.9025% and 100.93%	7.89% and 9.51% and 9.23%	94.8058% and 107.984% and 103.91%	11.1403% and 9.255% and 17.6554%	65.3589% and 58.7338% and 70.2106%	0.13	2.3 × 10^−2	6	2824.6 and 2800.6 and 2664.6	1780.6 and 1887.6 and 2192.6	1780.6 and 1687.6 and 2021.6	1637.6 and 1410.6 and 1592.6	1188.6 and 1223.6 and 1189.6	912.6 and 875.6 and 944.6	936.6 and 917.6 and 925.6	1.5	2.7	93.1337 and 89.8918	73.5656 and 73.5943	CN(CC=CC(=O)N1CCCC(n2nc(-c3ccc(Oc4ccccc4)cc3)c3c(N)ncnc32)C1)CCCNC(=O)CNc1cccc2c1C(=O)N(C1CCC(=O)NC1=O)C2=O (stereo not shown) [IRC-1]	BTK engagement (BTK-NanoLuc fusion; at 400 nM): ~ 100%; Cell viability, MOML-14 (MOLM-14 cells; drug concentration 1.00E-05 M): 18.0378 and 23.8364 and 27.2416 and 22.4354 and 21.8906; Cell viability, MOML-14 (MOLM-14 cells; drug concentration 1.60E-08 M): 95.6375 and 84.8576 and 100.21 and 79.6428 and 95.3845; Cell viability, MOML-14 (MOLM-14 cells; drug concentration 2.00E-06 M): 77.6385 and 69.5439 and 88.1655 and 70.6919 and 85.8499; Cell viability, MOML-14 (MOLM-14 cells; drug concentration 3.20E-09 M): 83.1063 and 84.2544 and 98.5173 and 96.2017 and 79.9735; Cell viability, MOML-14 (MOLM-14 cells; drug concentration 4.00E-07 M): 95.365 and 106.398 and 86.1807 and 91.7653 and 81.4134; Cell viability, MOML-14 (MOLM-14 cells; drug concentration 6.40E-10 M): 91.6096 and 88.3017 and 105.931 and 90.734 and 74.6225; Cell viability, MOML-14 (MOLM-14 cells; drug concentration 8.00E-08 M): 76.0624 and 92.5825 and 94.7813 and 82.8144 and 77.7553; Quantification anti-BTK / anti-β-actin (BTK level vs DMSO) (BTK [2]; 200 nM): 64.1549 and 63.4726; BTK degradation (in words) (BTK [2]; MOLM-14 cells, indicated doses, 24 h): induced inefficient BTK degradation; also recorded: very little BTK degradation was observed; BTK quantification (anti-BTK / anti-β-actin) (BTK [3]; 8 nM): 93.1337 and 89.8918; BTK quantification (anti-BTK / anti-β-actin) (BTK [3]; 40 nM): 73.5656 and 73.5943; BTK quantification (anti-BTK / anti-β-actin) (BTK [3]; 200 nM): 64.1549 and 63.4726
19.811% and 15.5465% and 15.3581%	97.712% and 94.5586% and 94.4887%	33.1128% and 33.4469% and 31.5012%	87.6339% and 98.6398% and 114.053%	69.4314% and 86.9635% and 77.822%	100.734% and 107.362% and 104.968%	1.27	3.7 × 10^−3	40	2486.8 and 2886.8 and 2579.8	2242.8 and 2235.8 and 2132.8	2244.8 and 1962.8 and 1899.8	1778.8 and 1742.8 and 1730.8	1389.8 and 1303.8 and 1288.8	1034.8 and 1140.8 and 1274.8	1293.8 and 1294.8 and 1588.8	1.8	4.1	97.1575 and 95.3789	69.0679 and 73.2452	CN(CCCNC(=O)CNc1cccc2c1C(=O)N(C1CCC(=O)NC1=O)C2=O)CCCC(=O)N1CCCC(n2nc(-c3ccc(Oc4ccccc4)cc3)c3c(N)ncnc32)C1 (stereo not shown) [RNC-1]	MOLM-14 Cell Viability% (MOLM-14 cells; 1.00E-05 M): 22.564% and 21.8706% and 28.4317% and 19.6302% and 20.5903%; MOLM-14 Cell Viability% (MOLM-14 cells; 1.60E-08 M): 88.2112% and 80.7255% and 82.3435% and 80.6899% and 90.8606%; MOLM-14 Cell Viability% (MOLM-14 cells; 2.00E-06 M): 59.495% and 70.377% and 65.6472% and 60.4907% and 61.7354%; MOLM-14 Cell Viability% (MOLM-14 cells; 3.20E-09 M): 88.958% and 75.6935% and 86.6821% and 75.5334% and 84.3883%; MOLM-14 Cell Viability% (MOLM-14 cells; 4.00E-07 M): 78.8051% and 78.5206% and 78.325% and 79.1785% and 78.2717%; MOLM-14 Cell Viability% (MOLM-14 cells; 6.40E-10 M): 75.0356% and 77.596% and 87.8023% and 83.7127% and 80.761%; MOLM-14 Cell Viability% (MOLM-14 cells; 8.00E-08 M): 68.7056% and 84.1394% and 79.712% and 75.2134% and 77.276%; Quantification anti-BTK / anti-β-actin (BTK level vs DMSO) (BTK [2]; 200 nM): 33.5661 and 27.9942; BTK quantification (anti-BTK / anti-β-actin) (BTK [3]; 8 nM): 97.1575 and 95.3789; BTK quantification (anti-BTK / anti-β-actin) (BTK [3]; 40 nM): 69.0679 and 73.2452; BTK quantification (anti-BTK / anti-β-actin) (BTK [3]; 200 nM): 33.5661 and 27.9942
